{"source": "patent US10041105B2", "about": "“Methods and devices for detection of resistance to an enzyme inhibitor” (priority 2014, dated 2018)", "key": {"[1]": {"system": "SHV-2 beta lactamase (Escherichia coli)", "sequence (P0A9Z7 22-286)": "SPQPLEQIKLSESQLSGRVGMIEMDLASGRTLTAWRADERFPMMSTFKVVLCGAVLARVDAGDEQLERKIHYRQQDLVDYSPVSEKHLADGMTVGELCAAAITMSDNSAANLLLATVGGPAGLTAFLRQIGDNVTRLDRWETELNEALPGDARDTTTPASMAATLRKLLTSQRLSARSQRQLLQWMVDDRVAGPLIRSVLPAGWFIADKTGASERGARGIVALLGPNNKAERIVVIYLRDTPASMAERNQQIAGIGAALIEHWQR", "format": "biochemical", "experimental": "(§1) The reagent mix was prepared as a 2× concentrated solution. The 2× concentrated reagent mix contained 50 mM HEPES (pH 7.0 to 7.2), 0.2 mM ZnCl2, 8 mM ATP, 10 mM DTT, 0.1 mM Coenzyme A, 5 micrograms/mL luciferase, 0.01 mM Cephalosporin-O-Luciferin, 0.1 mg/mL BSA, 8 mM CaCl2, 30 mM MgCl2, and 1% Triton X-100. Cephalosporin-O-Luciferin was used as a beta lactamase substrate. This substrate was synthesized and purified according to a procedure published in a scientific article (Angew. Chem. Int. Ed. 2007 Vol. 46, pp. 7031-7034), which is cited here solely as a reference.\n(§2) Genes encoding five species of beta lactamase were synthesized and cloned into an E. coli expression vector. The E. coli cells transformed with the expression vector containing the gene encoding a beta lactamase was induced to express the enzyme. The cells were then pelleted, suspended in a sample buffer (Fisher Scientific Cat. No. 90084) and sonicated to lyse the cells.\n(§3) 2× concentrated reagent mixes were prepared. The 2× reagent mix without a beta lactamase inhibitor or antibiotic (Reagent Mix I) was prepared according to the composition provided in Example 6. The 2× concentrated reagent mix containing a beta lactamase inhibitor or imipenem (Reagent Mix IIb) was prepared by supplementing the Reagent Mix I with 64 micrograms/mL of clavulanate (Reagent Mix IIa) or 64 micrograms/mL of imipenem (Reagent Mix IIb).\n(§4) Reactions were carried out by diluting 50 microliters of 2× reagent mixes into 45 microliters of deionized water, followed by addition of 5 microliters of cell lysate. […] Light signal was measured using a luminometer after 15 min incubation at room temperature. The signal in Reagent Mix I was used to detect the presence of beta lactamase in the sample by comparing the signal in the reaction to that of negative controls while the signal ratio was used to determine the resistance of the beta lactamase to clavulanate or imipenem.\n(§5) In this example, the signal ratios were expressed as R-Factor values, which were calculated as follows: R-Factor=10×(Reagent Mix II Signal÷Reagent Mix I Signal)"}, "SHV-2 beta lactamase": {"molecular_target": "SHV-2 beta lactamase (Escherichia coli, UniProt P0A9Z7)", "sequence (P0A9Z7 22-286)": "as above", "format": "biochemical", "experimental": "as §1, §2, §3, §4, §5"}, "p99 beta lactamase": {"molecular_target": "p99 beta lactamase (Enterobacter cloacae, UniProt P05364)", "sequence (P05364 21-381)": "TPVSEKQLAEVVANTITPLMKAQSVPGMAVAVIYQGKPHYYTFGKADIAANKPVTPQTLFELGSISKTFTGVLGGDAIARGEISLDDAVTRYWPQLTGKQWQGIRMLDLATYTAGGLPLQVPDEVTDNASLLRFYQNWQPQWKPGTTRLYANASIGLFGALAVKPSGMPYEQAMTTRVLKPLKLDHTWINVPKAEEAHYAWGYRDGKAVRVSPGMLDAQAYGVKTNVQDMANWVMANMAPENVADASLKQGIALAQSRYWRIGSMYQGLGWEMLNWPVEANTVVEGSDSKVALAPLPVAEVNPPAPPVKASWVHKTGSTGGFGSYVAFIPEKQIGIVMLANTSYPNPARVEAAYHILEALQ", "format": "biochemical", "experimental": "as §1, §2, §3, §4, §5"}, "KPC-2 beta lactamase": {"molecular_target": "KPC-2 beta lactamase (Klebsiella pneumoniae, UniProt Q9F663)", "sequence (Q9F663 25-293 limits assumed)": "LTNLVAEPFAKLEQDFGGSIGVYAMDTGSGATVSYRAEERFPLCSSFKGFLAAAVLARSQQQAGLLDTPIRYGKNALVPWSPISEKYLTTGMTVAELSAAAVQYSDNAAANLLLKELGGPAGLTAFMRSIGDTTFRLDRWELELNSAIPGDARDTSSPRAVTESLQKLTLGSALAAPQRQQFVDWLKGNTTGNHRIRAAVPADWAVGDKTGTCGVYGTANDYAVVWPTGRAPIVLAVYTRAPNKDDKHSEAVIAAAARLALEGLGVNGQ", "experiment": "Beta lactamase luminescent assay with inhibitor reagent mixes", "format": "biochemical", "conditions": "64 micrograms/mL in 2× mix, lysate dilution 1:10", "experimental": "as §1, §2, §3, §4, §5"}, "[2]": {"molecular_target": "New Deli Metallo-beta lactamase (NDM-2) (Klebsiella pneumoniae, UniProt C7C422, P28A)", "sequence (C7C422 29-270 P28A (numbered from the first residue shown))": "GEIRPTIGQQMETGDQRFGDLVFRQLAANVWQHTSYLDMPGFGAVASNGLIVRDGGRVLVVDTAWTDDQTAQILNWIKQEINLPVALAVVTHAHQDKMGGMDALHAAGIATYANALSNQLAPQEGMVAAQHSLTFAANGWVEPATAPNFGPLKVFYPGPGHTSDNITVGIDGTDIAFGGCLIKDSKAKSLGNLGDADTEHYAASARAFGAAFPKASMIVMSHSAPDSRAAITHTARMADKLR", "experiment": "Beta lactamase luminescent assay with inhibitor reagent mixes", "format": "biochemical", "conditions": "64 micrograms/mL in 2× mix, lysate dilution 1:2", "experimental": "as §1, §2, §3, §4, §5"}, "TEM-2 beta lactamase": {"molecular_target": "TEM-2 beta lactamase (Escherichia coli, UniProt P62593, Q37K)", "experiment": "Beta lactamase luminescent assay with inhibitor reagent mixes", "format": "biochemical", "experimental": "as §1, §2, §3, §4, §5"}, "[3]": {"system": "beta lactamase of patient isolate colony", "experiment": "Clavulanate resistance using a single bacterial colony", "description": "(§6) As described in EXAMPLE 7, the assay consisted of two reagents, Reagent Mix I and Reagent Mix II, where Reagent Mix I contained one master mix without clavulanate while Reagent Mix II contained a master mix with clavulanate. In this example, reagent mixes equivalent to 0.25 mL of the master mixes were lyophilized in test tubes.\n(§7) Patient samples were cultured overnight on an agar plate. A single colony was suspended in 2.5 mL sample buffer as described in EXAMPLE 7, of which 0.25 mL was added to Reagent Mixes I and II vials. After incubation at room temperature for 15 min, the reagent vials were inserted into a luminometer for signal measurement."}, "[4]": {"system": "beta lactamase of patient isolate colony", "experiment": "Clavulanate resistance using a single bacterial colony", "remark": "listed apart in the source", "description": "as §6, §7"}, "[5]": {"system": "beta lactamase of patient isolate colony", "experiment": "Clavulanate resistance using a single bacterial colony", "remark": "listed apart in the source", "description": "as §6, §7"}, "[6]": {"system": "beta lactamase of patient isolate colony", "experiment": "Clavulanate resistance using a single bacterial colony", "remark": "listed apart in the source", "description": "as §6, §7"}}}
{"smiles": "O=C(O)[C@H]1/C(=C/CO)O[C@@H]2CC(=O)N21", "note": "[Clavulanate, clavulanate]", "values": [{"measurement": "R-Factor", "setting": "[1]", "value": 0.23}, {"measurement": "S/N (Signal to Noise Ratio) in inhibitor-containing reagent mix", "setting": "SHV-2 beta lactamase", "value": 1.00}, {"measurement": "resistance of the beta lactamase to the substance", "setting": "SHV-2 beta lactamase", "value": "susceptible"}, {"measurement": "S/N (Signal to Noise Ratio) in inhibitor-containing reagent mix", "setting": "p99 beta lactamase", "value": 48.00}, {"measurement": "R-Factor", "setting": "KPC-2 beta lactamase", "value": 8.94}, {"measurement": "S/N (Signal to Noise Ratio) in inhibitor-containing reagent mix", "setting": "KPC-2 beta lactamase; 15 min", "value": 40.00}, {"measurement": "R-Factor", "setting": "KPC-2 beta lactamase; listed as clavulanate", "value": "high"}, {"measurement": "R-Factor", "setting": "[2]", "value": 6.02}, {"measurement": "S/N (Signal to Noise Ratio) in inhibitor-containing reagent mix", "setting": "[2]; 15 min", "value": 13.00}, {"measurement": "R-Factor", "setting": "[2]; listed as clavulanate", "value": "high"}, {"measurement": "R-Factor", "setting": "TEM-2 beta lactamase; 64 micrograms/mL in 2× mix, lysate undiluted", "value": 1.18}, {"measurement": "S/N (Signal to Noise Ratio) in inhibitor-containing reagent mix", "setting": "TEM-2 beta lactamase; 64 micrograms/mL in 2× mix, lysate undiluted, 15 min", "value": 5.00}, {"measurement": "resistance of the beta lactamase to the substance", "setting": "TEM-2 beta lactamase; judged from R-Factor", "value": "susceptible"}, {"measurement": "Interpretation", "setting": "[3]; No. 1, Sample ID 1845", "value": "susceptible to CA (CA (clavulanate) resistance cutoff R-Factor value: 2.50)"}, {"measurement": "R-Factor", "setting": "[3]; No. 1, Sample ID 1845", "value": 0.07}, {"measurement": "Interpretation", "setting": "[3]; No. 2, Sample ID 1847", "value": "susceptible to CA (CA (clavulanate) resistance cutoff R-Factor value: 2.50)"}, {"measurement": "R-Factor", "setting": "[3]; No. 2, Sample ID 1847", "value": 0.15}, {"measurement": "Interpretation", "setting": "[3]; No. 20, Sample ID B650", "value": "susceptible to CA (CA (clavulanate) resistance cutoff R-Factor value: 2.50)"}, {"measurement": "R-Factor", "setting": "[3]; No. 20, Sample ID B650", "value": 0.11}, {"measurement": "Interpretation", "setting": "[3]; No. 21, Sample ID B671", "value": "resistant to CA (CA (clavulanate) resistance cutoff R-Factor value: 2.50)"}, {"measurement": "R-Factor", "setting": "[3]; No. 21, Sample ID B671", "value": 4.12}, {"measurement": "Interpretation", "setting": "[4]; No. 3, Sample ID 1820", "value": "resistant to CA (CA (clavulanate) resistance cutoff R-Factor value: 2.50)"}, {"measurement": "R-Factor", "setting": "[4]; No. 3, Sample ID 1820", "value": 3.67}, {"measurement": "Interpretation", "setting": "[4]; No. 7, Sample ID 1789", "value": "susceptible to CA (CA (clavulanate) resistance cutoff R-Factor value: 2.50)"}, {"measurement": "R-Factor", "setting": "[4]; No. 7, Sample ID 1789", "value": 1.14}, {"measurement": "Interpretation", "setting": "[4]; No. 8, Sample ID 1800", "value": "resistant to CA (CA (clavulanate) resistance cutoff R-Factor value: 2.50)"}, {"measurement": "R-Factor", "setting": "[4]; No. 8, Sample ID 1800", "value": 11.13}, {"measurement": "Interpretation", "setting": "[4]; No. 13, Sample ID 1962-2", "value": "resistant to CA (CA (clavulanate) resistance cutoff R-Factor value: 2.50)"}, {"measurement": "R-Factor", "setting": "[4]; No. 13, Sample ID 1962-2", "value": 15.47}, {"measurement": "Interpretation", "setting": "[4]; No. 14, Sample ID 1963", "value": "resistant to CA (CA (clavulanate) resistance cutoff R-Factor value: 2.50)"}, {"measurement": "R-Factor", "setting": "[4]; No. 14, Sample ID 1963", "value": 19.95}, {"measurement": "Interpretation", "setting": "[5]; No. 5, Sample ID B612", "value": "susceptible to CA (CA (clavulanate) resistance cutoff R-Factor value: 2.50)"}, {"measurement": "R-Factor", "setting": "[5]; No. 5, Sample ID B612", "value": 0.27}, {"measurement": "Interpretation", "setting": "[5]; No. 6, Sample ID B616", "value": "susceptible to CA (CA (clavulanate) resistance cutoff R-Factor value: 2.50)"}, {"measurement": "R-Factor", "setting": "[5]; No. 6, Sample ID B616", "value": 0.13}, {"measurement": "Interpretation", "setting": "[6]; No. 17, Sample ID 2015", "value": "susceptible to CA (CA (clavulanate) resistance cutoff R-Factor value: 2.50)"}, {"measurement": "R-Factor", "setting": "[6]; No. 17, Sample ID 2015", "value": 1.74}, {"measurement": "Interpretation", "setting": "[6]; No. 18, Sample ID 2022-1", "value": "susceptible to CA (CA (clavulanate) resistance cutoff R-Factor value: 2.50)"}, {"measurement": "R-Factor", "setting": "[6]; No. 18, Sample ID 2022-1", "value": 1.31}]}
